Measurements reported in PubChem BioAssay (NCI).
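A five-concentration, 48-hour dose response in 96-well plates underlies each endpoint, interpolated linearly between surrounding concentrations. Abbreviation: GI50, concentration required for 50% inhibition of growth. TGI: concentration producing complete growth inhibition.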

Assays:
Assay in all cases: NCI tumour cell line growth inhibition, 48 h
[1] = system: CCRF-CEM leukemia
[2] = system: HL-60(TB) leukemia
[3] = system: HT29 colon
[4] = system: K-562 leukemia
[5] = system: LOX IMVI melanoma
[6] = system: MOLT-4 leukemia
[7] = system: NCI/ADR-RES ovarian
[8] = system: RPMI-8226 leukemia
[9] = system: SR leukemia
[10] = system: T-47D breast
[11] = system: 786-0 renal
[12] = system: A498 renal
[13] = system: A549 NSCLC
[14] = system: ACHN renal
[15] = system: BT-549 breast
[16] = system: CAKI-1 renal
[17] = system: COLO 205 colon
[18] = system: DU-145 prostate
[19] = system: EKVX NSCLC
[20] = system: HCC-2998 colon
[21] = system: HCT-116 colon
[22] = system: HCT-15 colon
[23] = system: HOP-62 NSCLC
[24] = system: HOP-92 NSCLC
[25] = system: HS 578T breast
[26] = system: IGROV1 ovarian
[27] = system: KM12 colon
[28] = system: M14 melanoma
[29] = system: MALME-3M melanoma
[30] = system: MCF7 breast
[31] = system: MDA-MB-231 breast
[32] = system: MDA-MB-435
[33] = system: NCI-H226 lung
[34] = system: NCI-H23 lung
[35] = system: NCI-H460 lung
[36] = system: NCI-H522 lung
[37] = system: OVCAR-4 ovarian
[38] = system: OVCAR-5 ovarian
[39] = system: OVCAR-8 ovarian
[40] = system: PC-3 prostate
[41] = system: RXF 393 renal
[42] = system: SF-268 CNS
[43] = system: SF-295 CNS
[44] = system: SF-539 CNS
[45] = system: SK-MEL-2 melanoma
[46] = system: SK-MEL-28 melanoma
[47] = system: SK-MEL-5 melanoma
[48] = system: SK-OV-3 ovarian
[49] = system: SN12C renal
[50] = system: SNB-19 CNS
[51] = system: SNB-75 CNS
[52] = system: SW-620 colon
[53] = system: TK-10 renal
[54] = system: U251 CNS
[55] = system: UACC-257 melanoma
[56] = system: UACC-62 melanoma
[57] = system: UO-31 renal
[58] = system: OVCAR-3 ovarian

## C=C(C=O)[C@@H]1CC[C@]2(C)[C@H](C(=O)C=C3[C@H]4C[C@](C)(C(=O)OC)CC[C@]4(C)CC[C@]32C)[C@@]1(C)CCC#N
[1]
  GI50: 0.483 µM
  TGI: > 100 µM
[2]
  GI50: 1.72 µM
  TGI: 5.93 µM
[3]
  GI50: 1.12 µM
  TGI: 2.87 µM
[4]
  GI50: 1.81 µM
  TGI: > 100 µM
[5]
  GI50: 1.34 µM
  TGI: 2.7 µM
[6]
  GI50: 0.985 µM
  TGI: > 100 µM
[7]
  GI50: 1.88 µM
  TGI: 5.92 µM
[8]
  GI50: 0.942 µM
  TGI: 5.04 µM
[9]
  GI50: 1.02 µM
  TGI: > 100 µM
[10]
  GI50: 0.899 µM
  TGI: > 100 µM

## CSc1ccc(/C(=N/N=C(N)N)c2ccccc2)cc1
[11]
  GI50: 0.924 µM
  TGI: 15.8 µM
[12]
  GI50: 0.319 µM
  TGI: 1.66 µM
[13]
  GI50: 0.984 µM
  TGI: 14.2 µM
[14]
  GI50: 0.695 µM
  TGI: 12.6 µM
[15]
  GI50: 0.65 µM
  TGI: 3.18 µM
[16]
  GI50: 0.423 µM
  TGI: 10.9 µM
[1]
  GI50: 0.357 µM
  TGI: 19.2 µM
[17]
  GI50: 0.235 µM
  TGI: 0.549 µM
[18]
  GI50: 0.471 µM
  TGI: 13.3 µM
[19]
  GI50: 0.779 µM
  TGI: 18.1 µM
[20]
  GI50: 0.371 µM
  TGI: 1.57 µM
[21]
  GI50: 0.33 µM
  TGI: 11.4 µM
[22]
  GI50: 0.377 µM
  TGI: 12 µM
[2]
  GI50: 0.274 µM
  TGI: 0.883 µM
[23]
  GI50: 0.481 µM
  TGI: 13 µM
[24]
  GI50: 0.409 µM
  TGI: 5.32 µM
[25]
  GI50: 0.359 µM
  TGI: 12.9 µM
[3]
  GI50: 0.301 µM
  TGI: 2.88 µM
[26]
  GI50: 0.563 µM
  TGI: 12.2 µM
[4]
  GI50: 0.314 µM
  TGI: 11.5 µM
[27]
  GI50: 0.451 µM
  TGI: 14.2 µM
[5]
  GI50: 0.52 µM
  TGI: 8.78 µM
[28]
  GI50: 0.308 µM
  TGI: 1.42 µM
[29]
  GI50: 0.719 µM
  TGI: 13.5 µM
[30]
  GI50: 0.357 µM
  TGI: 9.46 µM
[31]
  GI50: 0.498 µM
  TGI: 11.8 µM
[32]
  GI50: 0.207 µM
  TGI: 0.478 µM
[6]
  GI50: 0.462 µM
  TGI: 13.4 µM
[33]
  GI50: 0.848 µM
  TGI: 18.6 µM
[34]
  GI50: 0.591 µM
  TGI: 14.9 µM
[35]
  GI50: 0.361 µM
  TGI: 10.7 µM
[36]
  GI50: 0.267 µM
  TGI: 0.996 µM
[7]
  GI50: 1.87 µM
  TGI: 11 µM
[37]
  GI50: 5.29 µM
  TGI: 27.2 µM
[38]
  GI50: 0.571 µM
  TGI: 15.4 µM
[39]
  GI50: 0.422 µM
  TGI: 11.2 µM
[40]
  GI50: 0.383 µM
  TGI: 10.9 µM
[8]
  GI50: 0.391 µM
  TGI: 5.46 µM
[41]
  GI50: 0.282 µM
  TGI: 0.781 µM
[42]
  GI50: 1.29 µM
  TGI: 16.1 µM
[43]
  GI50: 0.35 µM
  TGI: 11.5 µM
[44]
  GI50: 0.301 µM
  TGI: 0.931 µM
[45]
  GI50: 0.391 µM
  TGI: 12.7 µM
[46]
  GI50: 1.07 µM
  TGI: 20 µM
[47]
  GI50: 0.609 µM
  TGI: 2.85 µM
[48]
  GI50: 0.605 µM
  TGI: 15.1 µM
[49]
  GI50: 0.536 µM
  TGI: 12.5 µM
[50]
  GI50: 0.439 µM
  TGI: 14 µM
[51]
  GI50: 0.31 µM
  TGI: 3.27 µM
[9]
  GI50: 0.247 µM
  TGI: 2.58 µM
[52]
  GI50: 0.435 µM
  TGI: 15.6 µM
[10]
  GI50: 0.535 µM
  TGI: 15.1 µM
[53]
  GI50: 4.43 µM
  TGI: 20.4 µM
[54]
  GI50: 0.393 µM
  TGI: 11.3 µM
[55]
  GI50: 1.08 µM
  TGI: 11.8 µM
[56]
  GI50: 0.473 µM
  TGI: 15 µM
[57]
  GI50: 0.747 µM
  TGI: 12.6 µM

## CC(Nc1c(C#N)cnc2ccc(-c3cncc(-c4n[nH]c(=O)o4)c3)cc12)c1ccccc1 (stereo not drawn)
[11]
  GI50: 2.44 µM
  TGI: 24.2 µM
[12]
  GI50: 1.77 µM
  TGI: 5.95 µM
[13]
  GI50: 3.64 µM
  TGI: 29.2 µM
[14]
  GI50: 3.57 µM
  TGI: 13.3 µM
[15]
  GI50: 1.35 µM
  TGI: 5.48 µM
[16]
  GI50: 3.69 µM
  TGI: 34.5 µM
[1]
  GI50: 3.7 µM
  TGI: > 100 µM
[17]
  GI50: 2.85 µM
  TGI: 14.8 µM
[18]
  GI50: 2.98 µM
  TGI: 15.6 µM
[19]
  GI50: 2.46 µM
  TGI: 8.59 µM
[20]
  GI50: 3.48 µM
  TGI: 14.1 µM
[21]
  GI50: 2.65 µM
  TGI: 8.75 µM
[22]
  GI50: 3.06 µM
  TGI: 13.2 µM
[2]
  GI50: 8.19 µM
  TGI: 72.5 µM
[23]
  GI50: 3.51 µM
  TGI: 24.7 µM
[24]
  GI50: 2 µM
  TGI: 7.27 µM
[25]
  GI50: 1.9 µM
  TGI: 5.47 µM
[3]
  GI50: 3.66 µM
  TGI: 31.1 µM
[26]
  GI50: 1.55 µM
  TGI: 4.77 µM
[4]
  GI50: 4.42 µM
  TGI: > 100 µM
[27]
  GI50: 3.65 µM
  TGI: 17.2 µM
[5]
  GI50: 1.94 µM
  TGI: 8.44 µM
[28]
  GI50: 3.87 µM
  TGI: 33.4 µM
[29]
  GI50: 2.17 µM
  TGI: 9.36 µM
[30]
  GI50: 2.64 µM
  TGI: 15.8 µM
[31]
  GI50: 2.15 µM
  TGI: 9.65 µM
[32]
  GI50: 3.59 µM
  TGI: 29.5 µM
[6]
  GI50: 3.02 µM
  TGI: 76 µM
[33]
  GI50: 2.56 µM
  TGI: 13.8 µM
[34]
  GI50: 3.12 µM
  TGI: 14.5 µM
[35]
  GI50: 3.2 µM
  TGI: 14.9 µM
[36]
  GI50: 3.31 µM
  TGI: 16.2 µM
[7]
  GI50: 20.2 µM
  TGI: 81.4 µM
[58]
  GI50: 1.92 µM
  TGI: 5.47 µM
[37]
  GI50: 2.84 µM
  TGI: 24.3 µM
[38]
  GI50: 3.6 µM
  TGI: 22.9 µM
[39]
  GI50: 3.63 µM
  TGI: 32.9 µM
[40]
  GI50: 3.25 µM
  TGI: > 100 µM
[8]
  GI50: 2.52 µM
  TGI: > 100 µM
[42]
  GI50: 2.62 µM
  TGI: 9.88 µM
[43]
  GI50: 2.64 µM
  TGI: 10.3 µM
[44]
  GI50: 2.53 µM
  TGI: 10.3 µM
[45]
  GI50: 2.24 µM
  TGI: 6.66 µM
[46]
  GI50: 3.4 µM
  TGI: 14.7 µM
[47]
  GI50: 1.68 µM
  TGI: 3.07 µM
[48]
  GI50: 4.51 µM
  TGI: 28.3 µM
[49]
  GI50: 2.73 µM
  TGI: 13.7 µM
[50]
  GI50: 2.77 µM
  TGI: 14.6 µM
[51]
  GI50: 2.15 µM
  TGI: 7.76 µM
[9]
  GI50: 2.79 µM
  TGI: 46.8 µM
[52]
  GI50: 3.39 µM
  TGI: 18.9 µM
[10]
  GI50: 2.36 µM
  TGI: > 100 µM
[53]
  GI50: 3.83 µM
  TGI: 44.6 µM
[54]
  GI50: 2.36 µM
  TGI: 14.4 µM
[55]
  GI50: 4.48 µM
  TGI: 22.5 µM
[56]
  GI50: 1.96 µM
  TGI: 4.87 µM
[57]
  GI50: 1.77 µM
  TGI: 8.79 µM
